Results as given in ChEMBL document CHEMBL1129709, “(Hydroxyethyl) sulfonamide HIV-1 Protease inhibitors: Identification of the 2-methylbenzoyl moiety at P-2” (Bioorg Med Chem Lett, 1996).

Legend:
CCRF-CEM [1] = assay: Antiviral activity was evaluated against HIV-IIIB strain of HIV-1 in CEM cell culture assay; type: functional, cell-based; conditions: Homo sapiens
[2] = Bioavailability in rat; type: ADME, organism-based; conditions: in vivo
[3] = Maximum concentration was evaluated in rats; type: ADME, organism-based; conditions: rat, in vivo
CCRF-CEM [4] = assay: Toxic dose was evaluated against HIV-IIIB strain of HIV-1 in CEM cell culture assay; conditions: Homo sapiens, CEM cells; read-out: TD50 (the source's name)
[5] = Half-life was evaluated in rats; type: ADME, organism-based; conditions: rat, in vivo
[6] = target: T1, Human immunodeficiency virus type 1 protease (Human immunodeficiency virus 1, UniProt Q72874); assay: Inhibitory activity against HIV-1 protease in spectrofluorimetric assay
[7] = target: T1, Human immunodeficiency virus type 1 protease; assay: Inhibitory activity was evaluated against recombinant HIV-1 protease using spectrofluorimetric assay

SMILES | EC50 (CCRF-CEM [1]) | CC50 (CCRF-CEM [4]) | IC50 [6] | also measured
COc1ccc(S(=O)(=O)N(CC(C)C)C[C@@H](O)[C@H](Cc2ccccc2)NC(=O)c2cccc(O)c2C)cc1 | 7 nM | > 10000 nM |  | bioavailability [2]: 12%; Cmax [3]: 270 ng/mL; half-life [5]: 1 h
COc1ccc(S(=O)(=O)N(CC(C)C)C[C@@H](O)[C@H](Cc2ccccc2)NC(=O)c2cccc(C)c2)cc1 |  |  | 27 nM | 
COc1ccc(S(=O)(=O)N(CC(C)C)C[C@@H](O)[C@H](Cc2ccccc2)NC(=O)c2ccccc2C(C)C)cc1 |  |  | 49 nM | 
COc1ccc(S(=O)(=O)N(CC(C)C)C[C@@H](O)[C@H](Cc2ccccc2)NC(=O)c2ccccc2C)cc1 | 200 nM |  |  | 
COc1ccc(S(=O)(=O)N(CC(C)C)C[C@@H](O)[C@H](Cc2ccccc2)NC(=O)c2ccc(O)cc2C)cc1 | 9 nM | > 10000 nM |  | IC50 [7]: 5 nM
COc1ccc(S(=O)(=O)N(CC(C)C)C[C@@H](O)[C@H](Cc2ccccc2)NC(=O)c2ccccc2O)cc1 |  |  | 900 nM | 
COc1ccc(S(=O)(=O)N(CC(C)C)C[C@@H](O)[C@H](Cc2ccccc2)NC(=O)c2cccc(N)c2C)cc1 | 18 nM | > 10000 nM |  | bioavailability [2]: 54%; Cmax [3]: 1800 ng/mL; half-life [5]: 1 h
COc1ccc(S(=O)(=O)N(CC(C)C)C[C@@H](O)[C@H](Cc2ccccc2)NC(=O)c2ccc(C)cc2)cc1 |  |  | 15 nM | 
COc1ccc(S(=O)(=O)N(CC(C)C)C[C@@H](O)[C@H](Cc2ccccc2)NC(=O)c2ccc(N)cc2C)cc1 | 18 nM |  |  | 
COc1ccc(S(=O)(=O)N(CC(C)C)C[C@@H](O)[C@H](Cc2ccccc2)NC(=O)c2ccccc2C(F)(F)F)cc1 |  |  | 37 nM | 
COc1ccc(S(=O)(=O)N(CC(C)C)C[C@@H](O)[C@H](Cc2ccccc2)NC(=O)c2cc(N)ccc2C)cc1 | 82 nM | > 10000 nM |  | 
COc1ccc(S(=O)(=O)N(CC(C)C)C[C@@H](O)[C@H](Cc2ccccc2)NC(=O)c2cc(O)ccc2C)cc1 |  | > 10000 nM |  | IC50 [7]: 40 nM
